Laboratory results reported in patent US8309530B2, “Compositions and methods for modulating ghrelin-mediated conditions” (Washington State University, priority 2009, dated 2012).
Entries after “also recorded” stand apart in the source; their conditions may differ.

Key:
ghrelin mRNA = assay: initial screening of ghrelin siRNAs using cultured cells: suppression of ghrelin mRNA in vitro; format: cell-based, mouse
Experimental: In certain preferred embodiments, baseline food intake for the 12-h light and dark period is measured over a 48-h time period in rats (n=16) that receive no treatment. On the third day, rats are separated randomly into two groups. One group of rats (n=8) is treated with scrambled ghrelin siRNA, the other group of rats receive ghrelin siRNA in the same volume administered orally by using an intragastric gavage. The dose and the specific siRNA is determined by an initial screening of ghrelin siRNAs using cultured cells. The siRNA that induces a significant suppression of ghrelin mRNA (for example, Applicants have shown that GGUUCAAUGCUCCCUUCGAtt (SEQ ID NO:17) suppressed ghrelin mRNA levels by 40% in vitro) compared to scrambled or saline control is, then, used in vivo. Food intake is measure before dark and light onset on each experimental day and for 5 additional days after the siRNA treatment. Body weight is monitored once a day. Additionally, rats are implanted with EEG and EMG electrodes for sleep-wake recordings.

ghrelin KO mice [1] = assay: obestatin replacement by osmotic minipump in ghrelin KO mice, fasting in cold environment; format: in vivo
Excerpt: Likewise, in addition to ghrelin, another product of the ghrelin gene is obestatin. The effects of obestatin on food intake and metabolism appear to be the opposite of those of ghrelin although the results are still inconclusive (2, 10-14). If obestatin has a leptin-like role in the regulation of metabolism, then decreased resistance to metabolic challenge in ghrelin KO mice could be explained by the lack of this hormone. Based on this idea, Applicants attempted to rescue the herein disclosed impaired phenotype by replacing obestatin in ghrelin KO mice. There are several potential ways to do this, although each has its own limitations. The effects of a single bolus injection of obestatin are limited by the half-life of the peptide (22±2 min). […] Because of those limitations, obestatin was replaced using osmotic minipumps. This method also has limitations. The minipumps are filled and implanted at least 10 days before the challenge to allow enough time for recovery and to carry out the experiment. The stability of obestatin in solution at body temperature for such extended time period is unknown. Moreover, some of the biological effects of obestatin show a bell-shaped dose-response relationship. […]
Body temperature data are expressed as difference from baseline in 10-min averages.

ghrelin KO mice [2] = assay: bolus injections of obestatin in ghrelin KO mice (preliminary data); format: in vivo; settings: preliminary data (not shown)
Excerpt: Likewise, in addition to ghrelin, another product of the ghrelin gene is obestatin. The effects of obestatin on food intake and metabolism appear to be the opposite of those of ghrelin although the results are still inconclusive (2, 10-14). If obestatin has a leptin-like role in the regulation of metabolism, then decreased resistance to metabolic challenge in ghrelin KO mice could be explained by the lack of this hormone. Based on this idea, Applicants attempted to rescue the herein disclosed impaired phenotype by replacing obestatin in ghrelin KO mice. There are several potential ways to do this, although each has its own limitations. The effects of a single bolus injection of obestatin are limited by the half-life of the peptide (22±2 min). […] Because of those limitations, obestatin was replaced using osmotic minipumps. This method also has limitations. The minipumps are filled and implanted at least 10 days before the challenge to allow enough time for recovery and to carry out the experiment. The stability of obestatin in solution at body temperature for such extended time period is unknown. Moreover, some of the biological effects of obestatin show a bell-shaped dose-response relationship. It is unknown whether the amount of obestatin released from the minipumps provides the optimal plasma levels or appropriate pulsatile or ultradian secretion patterns.

Row | Substance | suppression of ghrelin mRNA levels (ghrelin mRNA) | development of hypothermia / hypothermic response (ghrelin KO mice [1]; osmotic minipump, fasting day) | entered hypothermia later than those that received saline (ghrelin KO mice [1]; subcutaneous infusion of 300 nmol/kg/day for 10 days by osmotic minipump) | hypothermia in ghrelin KO mice (ghrelin KO mice [2])
1 | SEQ ID NO:17: ghrelin siRNA (mouse), sequence GGUUCAAUGCUCCCUUCGAtt (GGUUCAAUGCUCCCUUCGATT; chemistry not given here) | 40% | – | – | –
2 | obestatin | – | significantly attenuated; also recorded: significantly delayed | about 6 hours | attenuated hypothermia
